Reference: paper PMC11053168, “Agonist-selective activation of individual G-proteins by muscarinic receptors” (Scientific Reports, 2024)

Target: T1, M2 receptor (Homo sapiens, UniProt P08172)
T1 sequence (P08172 1-466): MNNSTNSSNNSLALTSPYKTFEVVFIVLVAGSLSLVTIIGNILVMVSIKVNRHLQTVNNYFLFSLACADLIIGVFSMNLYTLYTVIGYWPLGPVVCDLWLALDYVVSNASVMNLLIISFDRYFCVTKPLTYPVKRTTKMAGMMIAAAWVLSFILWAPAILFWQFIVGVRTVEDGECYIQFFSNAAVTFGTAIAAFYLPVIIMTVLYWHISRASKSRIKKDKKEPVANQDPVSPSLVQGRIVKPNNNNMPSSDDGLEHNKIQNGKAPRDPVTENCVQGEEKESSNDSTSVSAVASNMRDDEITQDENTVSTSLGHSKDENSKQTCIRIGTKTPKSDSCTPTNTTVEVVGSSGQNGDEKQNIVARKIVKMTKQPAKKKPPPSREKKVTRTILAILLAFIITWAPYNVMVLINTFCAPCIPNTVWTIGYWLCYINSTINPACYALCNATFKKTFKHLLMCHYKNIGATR
Experiment: Agonist-stimulated GTPγ[35S] binding to Sf9 membranes expressing M2 receptor and individual Gαi/o
Type: biochemical
Design: host or cells: Sf9 insect cells, baculovirus (pFastBac1 / Bac-to-Bac); membranes
Details: for Signalling bias among Gαi/o relative to CBC: RAi / bias factor, CBC reference; for Activation of individual Gi/o Gα types: M2 with GαoA, GαoB, Gαi1, Gαi2, Gαi3; for Operational efficacy lower than the efficacy of CBC: at GαoA and GαoB
Method: Baculoviral stocks for expression of M2 receptor and individual Gα-subunits of Gi/o G-proteins (GαoA, GαoB, Gαi1, Gαi2, Gαi3) in SF9 cells were generated according to Bac-to-Bac® baculovirus expression system—user guide (https://assets.thermofisher.com/TFS-Assets/LSG/manuals/MAN0000414_BactoBacExpressionSystem_UG.pdf). […] After 96 h at 27 °C, baculoviral viral particles released into the medium were harvested. After centrifugation at 500×g for 10 min to remove detached cells and cell debris, baculoviral stock P0 was ready for amplification. Suspension of Sf9 cells at density 2 × 10^6 cells per ml was infected by baculoviral stock P0 in ratio 1:1000 and after 72 h of growth (in a shaking incubator at 135 rpm and 27 °C) the amplified baculoviral stock P1 was harvested. The cell suspension was centrifugated at 500×g for 10 min to remove cells and cell debris and the supernatant containing a high level of baculoviral particles P1 was collected. FBS to the concentration of 0.5% was added and the stock was stored at 4 °C, protected from light for up to 6 months. For the quantification of baculoviral particles, a plaque assay was used.
Cells were grown in suspension culture in 250 ml Erlenmeyer flasks in Sf-900™ III serum-free medium in an aerated shaking incubator at 27 °C and 135 rpm. Cells were maintained at the density of 1–4 × 10^6 cells per ml. Sf9 cells at the density 2 × 10^6 were co-infected with baculoviral stock for the M2 receptor and a particular Gi/o Gα in the ratio (1:10). […] Infected cells were harvested by centrifugation 1000×g for 10 min. Cell pellets were kept at − 80 °C.
Membranes were prepared as described previously by Randakova et al.[33]. Cells harvested from twenty 100 mm petri dishes (CHO) or 30 ml of cell suspension (Sf9) were suspended in 20 ml of ice-cold incubation medium (100 mM NaCl, 20 mM Na-HEPES, 10 mM MgCl2, pH 7.4) supplemented with 10 mM EDTA and homogenized on ice by two 30‐s strokes using a Polytron homogenizer (Ultra-Turrax; Janke & Kunkel GmbH & Co. KG, IKA-Labortechnik, Staufen, Germany) with a 30 s pause between strokes. Cell homogenates were centrifuged for 5 min at 1000×g to remove whole cells and cell nuclei. The resulting supernatants were centrifuged for 30 min at 30,000×g. Pellets were suspended in a fresh incubation medium, incubated on ice for 30 min, and centrifuged again. The resulting membrane pellets were kept at − 80 °C until assayed within 10 weeks.
Agonist stimulated GTPγ[^35S]binding to membranes from Sf9 cells expressing the M2 receptors in a combination with α-subunit of given Gi/o type (GαoA, GαoB, Gαi1, Gαi2, Gαi3) was measured in 96-well plates in a final volume of 200 µl of incubation medium described above containing 500 pM of GTPγ[^35S] […] Nonspecific binding was determined in the presence of 1 µM nonlabelled GTPγS. Incubations were terminated and processed as described above. Parameters of functional response were calculated according to Eq. (3) after subtraction of non-specific binding.
The basal value of GTPγ[^35S] binding was determined in the absence of the agonist. After subtraction of non-specific binding determined in the presence of 10 μM nonlabelled GTPγS, GTPγ[^35S]binding was divided by the basal value and expressed as folds over basal. […] Then Eq. (3) was fitted to the data using GraphPad. Obtained EMAX and EC50 values were used to calculate RAi values using Eq. (7). To determine τ and KA of the functional responses system EMAX was determined as described earlier. Basal values were subtracted and functional responses were expressed as fractions of system EMAX. […] Obtained τ and KA values were used to calculate the bias factor according to Eq. (8), see below, for each experiment.
Equation (4) was fitted to data by the two-step procedure described earlier[61]

SMILES: C[N+]1(Cc2cccs2)CCOCC1 [JB-12-2]
- Signalling bias among Gαi/o relative to CBC (M2): biased to GαoA
- Bias GoA vs GoB (M2, relative to carbachol): more than 5 fold
- Activation of individual Gi/o Gα types: activated all Gi/o Gα

SMILES: C[N+]1(Cc2ccc(Cl)s2)CC=CCC1 (centres unmarked) [PN-152, 1-[(5-chlorothiophen-2-yl)methyl]-1-methyl-1,2,3,6-tetrahydropyridin-1-ium]
- Signalling bias among Gαi/o relative to CBC (M2): absolute selectivity to Gαo with a preference for GαoB
- Activation of individual Gi/o Gα types: activated GαoA and GαoB only
- Operational efficacy lower than the efficacy of CBC: ~15 ×

SMILES: c1csc(C[N+]23CCC(CC2)CC3)c1 [JB-8A]
- Activation of individual Gi/o Gα types: activated GαoA and GαoB only
- Operational efficacy lower than the efficacy of CBC: 20–30 ×

SMILES: C[N+]1(Cc2cccs2)CC=CCC1 (centres unmarked) [JR-6, 1-methyl-1-[(thiophen-2-yl)methyl]-1,2,3,6-tetra hydropyridin-1-ium]
- GTPγ[35S] binding signal (M2 + Gi1): no signal
- GTPγ[35S] binding signal relative to the detection limit (M2 + GoA): more than 20 fold
- Signalling bias among Gαi/o relative to CBC (M2): absolute selectivity to Gαo with a preference for GαoB
- Activation of individual Gi/o Gα types: activated GαoA and GαoB only
- Operational efficacy lower than the efficacy of CBC: approx 10 ×

SMILES: COC(=O)C1=CCCN(Cc2cccs2)C1 [JB-13-1]
- Signalling bias among Gαi/o relative to CBC (M2): biased to Gαi3
- Activation of individual Gi/o Gα types: activated all Gi/o Gα

SMILES: C[N+](C)(C)CCOC(N)=O [CBC, carbachol, reference compound]
- GTPγ[35S] binding signal at Gi1 as % of GoA (M2 + Gi1 vs M2 + GoA): 62%
- Activation of individual Gi/o Gα types: activated all Gi/o types
